Assay results reported in patent publication US20160362416A1, “ANTIVIRAL COMPOUNDS” (Gilead Sciences, Inc., priority 2012, published 2016).

Columns and labels:
[1] = test system: Y93H in genotype 1a NS5A replicon; test: Resistance mutant replicon assay, genotype 1a NS5A Y93H; assay type: cell-based, HCV; settings: Hepatitis C virus, read-out: 1a Y93H (nM)
Procedure, shortened: (§1)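 Renilla luciferase signal after 72 h compound exposure gave EC50 via non-linear regression. Cells were Huh-7-derived cured-51 transiently transfected with replicon RNA carrying the NS5A mutation introduced by site-directed mutagenesis into 1a or 1b Pi-RLuc replicons.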

[2] = test system: NS5A chimeric genotype 2a JFH-1 replicon with genotype 2a J6 strain NS5A gene (M31); test: HCV genotype 2a J6 NS5A chimeric replicon assay, transient (t); assay type: cell-based; settings: Hepatitis C virus, 72 h, read-out: 2a J6 (t) (nM)
[3] = test system: Y93N in genotype 1a NS5A replicon; test: Resistance mutant replicon assay, genotype 1a NS5A Y93N; assay type: cell-based, HCV; settings: Hepatitis C virus, read-out: 1a Y93N (nM)
Procedure, shortened: as §1

[4] = test system: NS5A chimeric genotype 2a JFH-1 replicon with genotype 2b MD2b-1 strain NS5A gene (M31); test: HCV genotype 2b NS5A chimeric replicon assay, transient (t); assay type: cell-based; settings: Hepatitis C virus, 72 h, read-out: 2b (t) (nM)
Procedure, shortened: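 Stable 1b Con1 RLuc replicon cells, or Huh-Lunet cells transiently transfected with chimeric replicons (Con1 backbone carrying 3a S52 or 4a ED43 NS5A; JFH-1 backbone carrying 2b MD2b-1 NS5A, M31), treated with 3-fold dilutions for 72 h. Renilla luciferase read after lysis; EC50 by non-linear regression.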

[5] = IV and PO single dose pharmacokinetic studies in SD rats; assay type: in vivo; settings: Sprague-Dawley, rat, plasma, male SD rats, IV infusion 1 mg/kg, oral gavage 2 mg/kg, read-out: Rat % F
Procedure, shortened: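 Fasted male Sprague-Dawley rats (n=3/group) dosed IV by 30-min jugular infusion at 1 mg/kg or by oral gavage at 2 mg/kg, in ethanol/PEG 400 vehicles at pH 2.0–2.2. Serial plasma to 24 h quantified by LC/MS/MS (SRM); non-compartmental analysis, linear-trapezoidal AUC, %F as oral vs IV AUC.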

[6] = test system: stable HCV 1a RLuc replicon cells (genotype 1a H77 replicon); test: HCV genotype 1a RLuc replicon reporter assay; assay type: cell-based; settings: Hepatitis C virus; stable genotype 1a H77 RLuc replicon cells, 72 hours
[7] = test system: Q30E in genotype 1a NS5A replicon; test: Resistance mutant replicon assay, genotype 1a NS5A Q30E; assay type: cell-based, HCV; settings: Hepatitis C virus, read-out: 1a Q30E (nM)
Procedure, shortened: as §1

[8] = test system: stable HCV 2a JFH-1 Rluc replicon cells (L31 present in NS5A); test: HCV genotype 2a JFH-1 RLuc replicon reporter assay; assay type: cell-based; settings: Hepatitis C virus, 72 h, read-out: 2a JFH (nM)
[9] = test system: L31V/Y93H in genotype 1b NS5A replicon; test: Resistance mutant replicon assay, genotype 1b NS5A L31V/Y93H; assay type: cell-based, HCV; settings: Hepatitis C virus, read-out: 1b L31V/Y93H (nM)
Procedure, shortened: as §1

[10] = test system: Y93H in genotype 3a NS5A replicon; test: Resistance mutant replicon assay, genotype 3a NS5A Y93H; assay type: cell-based, HCV; settings: Hepatitis C virus, read-out: 3a Y93H (nM)
Procedure, shortened: as §1

`COC(=O)N[C@H](C(=O)N1[C@@H](C)CC[C@H]1c1ncc(-c2ccc3c(c2)COc2cc4c(ccc5nc([C@@H]6CC[C@H](C)N6C(=O)[C@@H](NC(=O)OC)C6CC(C)O[C@H](C)C6)[nH]c54)cc2-3)[nH]1)C(C)C` (stereo in doubt) [Example AQ, Methyl {(2S)-1-[(2S,5S)-2-(5-{2-[(2S,5S)-1-{(2S)-2-[(2R,6R)-2,6-dimethyltetrahydro-2H-pyran-4-yl]-2-[(methoxycarbonyl)amino]acetyl}-5-methylpyrrolidin-2-yl]-1,11-dihydroisochromeno[4′,3′:6,7]naphtho[1,2-d]imidazol-9-yl}-1H-imidazol-2-yl)-5-methylpyrrolidin-1-yl]-3-methyl-1-oxobutan-2-yl}carbamate] showed an EC50 [1] of 0.206 nM, an EC50 [2] of 0.011 nM and an EC50 [3] of 0.337 nM. It also gave an EC50 [4] of 0.016 nM, a bioavailability [5] of 22.9% and an EC50 [6] of 0.019 nM. For the same molecule, the EC50 [7] was 0.074 nM, the EC50 [8] was 0.016 nM and the EC50 [9] was 0.908 nM. It also gave an EC50 [10] of 0.703 nM.
